# Measured values published in ChEMBL document CHEMBL3046943, “Synthesis, anti-inflammatory and antimicrobial evaluation of novel N1-(quinolin-4yl)ethane-1,2-diamine phenyl urea derivatives” (2013).
# Active and inactive are the calls of the source. The calls are words filed in the database; no cut-off is given here.
# Tests used:
# Aspergillus flavus [1] = assay: Antifungal activity against Aspergillus flavus MTCC 277 up to 200 ug/ml after 2 to 3 days by agar well diffusion method; format: functional, organism-based
# Fusarium solani [2] = assay: Antifungal activity against Fusarium solani MTCC 350 up to 200 ug/ml after 2 to 3 days by agar well diffusion method; format: functional, organism-based
# Aspergillus niger [3] = assay: Antifungal activity against Aspergillus niger MTCC 281 up to 200 ug/ml after 2 to 3 days by agar well diffusion method; format: functional, organism-based
# Candida albicans [4] = assay: Antifungal activity against Candida albicans MTCC 227 after 2 to 3 days by agar well diffusion method; format: functional
# Salmonella typhimurium [5] = assay: Antibacterial activity against Salmonella enterica subsp. enterica serovar Typhimurium MTCC 98 up to 200 ug/ml after 24 hr by agar well diffusion method; format: functional, organism-based
# Escherichia coli [6] = assay: Antibacterial activity against Escherichia coli MTCC 443 up to 200 ug/ml after 24 hr by agar well diffusion method; format: functional, organism-based
# Bacillus subtilis [7] = assay: Antibacterial activity against Bacillus subtilis MTCC 441 up to 200 ug/ml after 24 hr by agar well diffusion method; format: functional, organism-based
# Staphylococcus aureus [8] = assay: Antibacterial activity against Staphylococcus aureus MTCC 96 after 24 hr by agar well diffusion method; format: functional; conditions: MTCC 96, 24 h
# THP-1 [9] = assay: Anti-inflammatory activity in Homo sapiens (human) THP1 cells assessed as inhibition of LPS-induced IL6 production at 10 uM incubated for 30 min prior to LPS-challenge measured after 24 hr by ELISA relative to control; format: functional
# THP-1 [10] = assay: Anti-inflammatory activity in Homo sapiens (human) THP1 cells assessed as inhibition of LPS-induced TNFalpha production at 10 uM incubated for 30 min prior to LPS-challenge measured after 24 hr by ELISA relative to control; format: functional
# Aspergillus flavus [11] = assay: Antifungal activity against Aspergillus flavus MTCC 277 after 2 to 3 days by agar well diffusion method; format: functional
# Fusarium solani [12] = assay: Antifungal activity against Fusarium solani MTCC 350 after 2 to 3 days by agar well diffusion method; format: functional
# Aspergillus niger [13] = assay: Antifungal activity against Aspergillus niger MTCC 281 after 2 to 3 days by agar well diffusion method; format: functional
# Salmonella typhimurium [14] = assay: Antibacterial activity against Salmonella enterica subsp. enterica serovar Typhimurium MTCC 98 after 24 hr by agar well diffusion method; format: functional; conditions: MTCC 98, 24 h
# Escherichia coli [15] = assay: Antibacterial activity against Escherichia coli MTCC 443 after 24 hr by agar well diffusion method; format: functional; conditions: MTCC 443, 24 h
# Bacillus subtilis [16] = assay: Antibacterial activity against Bacillus subtilis MTCC 441 after 24 hr by agar well diffusion method; format: functional; conditions: MTCC 441, 24 h
# Aspergillus flavus [17] = assay: Ratio of miconazole MIC to compound MIC for Aspergillus flavus MTCC 277; format: functional
# Candida albicans [18] = assay: Ratio of miconazole MIC to compound MIC for Candida albicans MTCC 227; format: functional
# THP-1 [19] = assay: Anti-inflammatory activity in Homo sapiens (human) THP1 cells assessed as inhibition of LPS-induced IL6 production at 1 uM incubated for 30 min prior to LPS-challenge measured after 24 hr by ELISA relative to control; format: functional
# THP-1 [20] = assay: Anti-inflammatory activity in Homo sapiens (human) THP1 cells assessed as inhibition of LPS-induced TNFalpha production at 1 uM incubated for 30 min prior to LPS-challenge measured after 24 hr by ELISA relative to control; format: functional
# Staphylococcus aureus [21] = assay: Antibacterial activity against Staphylococcus aureus MTCC 96 up to 200 ug/ml after 24 hr by agar well diffusion method; format: functional, organism-based
# Candida albicans [22] = assay: Antifungal activity against Candida albicans MTCC 227 up to 200 ug/ml after 2 to 3 days by agar well diffusion method; format: functional, organism-based
SMILES,MIC (Candida albicans [4]),MIC (Staphylococcus aureus [8]),MIC (Aspergillus flavus [11]),MIC (Fusarium solani [12]),MIC (Aspergillus niger [13]),MIC (Salmonella typhimurium [14]),MIC (Escherichia coli [15]),MIC (Bacillus subtilis [16]),Activity (Salmonella typhimurium [5]),Activity (Escherichia coli [6]),Activity (Bacillus subtilis [7]),inhibition at 10 µM (THP-1 [9]),inhibition at 10 µM (THP-1 [10]),also measured
O=C(NCCNc1ccnc2c(F)cc(F)cc12)Nc1cc(C(F)(F)F)ccc1Cl,20 µg/mL,25 µg/mL,20 µg/mL,20 µg/mL,15 µg/mL,15 µg/mL,20 µg/mL,25 µg/mL,,,,80%,61%,
C[C@@H]1C[C@H]2[C@@H]3CCC4=CC(=O)C=C[C@]4(C)[C@@]3(F)[C@@H](O)C[C@]2(C)[C@@]1(O)C(=O)CO [DEXAMETHASONE],,,,,,,,,,,,,,inhibition at 1 µM (THP-1 [19]): 86%; inhibition at 1 µM (THP-1 [20]): 72%
"O=c1cc[nH]c2c(F)cc(F)cc12 [6,8-DIFLUOROQUINOLIN-4(1H)-ONE]",90 µg/mL,,,,,,,,inactive,inactive,inactive,0%,0%,Activity (Aspergillus flavus [1]): inactive; Activity (Fusarium solani [2]): inactive; Activity (Aspergillus niger [3]): inactive; Activity (Staphylococcus aureus [21]): inactive
Clc1ccc(COC(Cn2ccnc2)c2ccc(Cl)cc2Cl)c(Cl)c1 (stereo unspecified) [MICONAZOLE],20 µg/mL,,20 µg/mL,15 µg/mL,15 µg/mL,,,,,,,,,
NCCNc1ccnc2c(F)cc(F)cc12,,,,,,,,,inactive,inactive,inactive,0%,0%,Activity (Aspergillus flavus [1]): inactive; Activity (Fusarium solani [2]): inactive; Activity (Aspergillus niger [3]): inactive; Activity (Candida albicans [22]): inactive; Activity (Staphylococcus aureus [21]): inactive
"Fc1cc(F)c2nccc(Cl)c2c1 [4-CHLORO-6,8-DIFLUOROQUINOLINE]",90 µg/mL,,90 µg/mL,,90 µg/mL,,,,inactive,inactive,inactive,0%,0%,Activity (Fusarium solani [2]): inactive; Activity (Staphylococcus aureus [21]): inactive
O=C(O)c1cn(C2CC2)c2cc(N3CCNCC3)c(F)cc2c1=O [CIPROFLOXACIN],,20 µg/mL,,,,20 µg/mL,15 µg/mL,15 µg/mL,,,,,,

# Further lines, with some results ahead:
MIC (Candida albicans [4]),MIC (Staphylococcus aureus [8]),MIC (Aspergillus flavus [11]),MIC (Fusarium solani [12]),MIC (Aspergillus niger [13]),MIC (Salmonella typhimurium [14]),MIC (Escherichia coli [15]),MIC (Bacillus subtilis [16]),SMILES,Activity (Salmonella typhimurium [5]),Activity (Escherichia coli [6]),Activity (Bacillus subtilis [7]),inhibition at 10 µM (THP-1 [9]),inhibition at 10 µM (THP-1 [10]),also measured
90 µg/mL,90 µg/mL,,,,,,,O=C(NCCNc1ccnc2c(F)cc(F)cc12)Nc1ccc(OC(F)(F)F)cc1,inactive,inactive,inactive,28%,16%,Activity (Aspergillus flavus [1]): inactive; Activity (Fusarium solani [2]): inactive; Activity (Aspergillus niger [3]): inactive
15 µg/mL,15 µg/mL,25 µg/mL,20 µg/mL,10 µg/mL,15 µg/mL,10 µg/mL,10 µg/mL,O=C(NCCNc1ccnc2c(F)cc(F)cc12)Nc1ccccc1C(F)(F)F,,,,90%,71%,
40 µg/mL,90 µg/mL,30 µg/mL,60 µg/mL,75 µg/mL,,,90 µg/mL,O=C(NCCNc1ccnc2c(F)cc(F)cc12)Nc1cccc(Cl)c1F,inactive,,,27%,16%,
15 µg/mL,20 µg/mL,15 µg/mL,20 µg/mL,20 µg/mL,20 µg/mL,15 µg/mL,20 µg/mL,O=C(NCCNc1ccnc2c(F)cc(F)cc12)Nc1ccccc1F,,,,18%,11%,Ratio (Aspergillus flavus [17]): 1.3; Ratio (Candida albicans [18]): 1.3
25 µg/mL,25 µg/mL,20 µg/mL,20 µg/mL,30 µg/mL,30 µg/mL,25 µg/mL,20 µg/mL,Cc1ccc(F)cc1NC(=O)NCCNc1ccnc2c(F)cc(F)cc12,,,,40%,28%,
45 µg/mL,40 µg/mL,40 µg/mL,50 µg/mL,35 µg/mL,30 µg/mL,40 µg/mL,35 µg/mL,CC(C)c1ccc(NC(=O)NCCNc2ccnc3c(F)cc(F)cc23)cc1,,,,82%,68%,
25 µg/mL,40 µg/mL,30 µg/mL,20 µg/mL,35 µg/mL,35 µg/mL,40 µg/mL,30 µg/mL,Cc1ccc(NC(=O)NCCNc2ccnc3c(F)cc(F)cc23)cc1C,,,,16%,11%,
80 µg/mL,,80 µg/mL,90 µg/mL,80 µg/mL,,,,O=C(NCCNc1ccnc2c(F)cc(F)cc12)Nc1ccccc1OC(F)(F)F,inactive,inactive,inactive,96%,78%,Activity (Staphylococcus aureus [21]): inactive
90 µg/mL,75 µg/mL,90 µg/mL,90 µg/mL,,90 µg/mL,90 µg/mL,90 µg/mL,O=C(NCCNc1ccnc2c(F)cc(F)cc12)Nc1ccc(C(F)(F)F)cc1,,,,35%,23%,Activity (Aspergillus niger [3]): inactive
